{"source": "patent US8324254B2", "about": "“Oxadiazole substituted indazole derivatives for use as sphingosine 1-phosphate (S1P) agonists” (Glaxo Group Limited, priority 2007, dated 2012)", "molecular_target": "T1, S1P1 receptor (Homo sapiens, UniProt P21453)", "T1 construct": "expressed in transfected cells; membranes", "T1 sequence (P21453 whole entry)": "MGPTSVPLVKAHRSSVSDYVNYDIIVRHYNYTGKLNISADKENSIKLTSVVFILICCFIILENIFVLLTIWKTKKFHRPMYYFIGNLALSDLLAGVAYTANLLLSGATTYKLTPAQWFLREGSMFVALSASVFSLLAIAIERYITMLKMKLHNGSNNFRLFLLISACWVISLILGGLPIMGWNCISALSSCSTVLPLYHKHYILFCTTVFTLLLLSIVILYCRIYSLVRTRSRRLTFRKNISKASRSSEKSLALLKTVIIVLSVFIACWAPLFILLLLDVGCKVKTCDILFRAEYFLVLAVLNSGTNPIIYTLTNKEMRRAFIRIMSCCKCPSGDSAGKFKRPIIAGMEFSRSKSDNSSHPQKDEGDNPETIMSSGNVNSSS", "experiment": "S1P1 GTPγS binding assay", "format": "biochemical", "conditions": "membranes of Rat Basophilic Leukaemia cells (RBL) stably expressing S1P1 receptor, 35S-GTPγS", "protocol": "Rat Basophilic Leukaemia cells (RBL) stably expressing S1P1 receptor were grown to 80% confluency before being harvested into 10 ml Phospho-Buffered Saline (PBS) and centrifuged at 1200 rpm for 5 minutes. After removal of the supernatant, the pellet was re-suspended and homogenised in 20 volumes assay buffer (20 mM HEPES pH 7.4, 100 mM NaCl, 10 mM MgCl2.6H2O, 10 μM GDP Saponin 10 μg/ml). The membrane suspension was further centrifuged for 20 minutes at 20,000 rpm re-homogenised and spun again. Following the second centrifugation the pellet was resuspended in an appropriate volume (1 ml for each flask of cells) and assayed for protein concentration.\nConcentrated stock of S1P was sonicated before serial dilutions were prepared from a starting concentration of 10^−5 M. Diluted membranes (10 μg/well) were incubated with various concentrations of S1P and 0.3 nM ^35S-GTPγS (NEN; specific activity 1250 Ci/mmol) in 96 deep well plates. Binding was performed at 30° C. for 45 minutes and terminated by harvesting the membranes onto GF/B filter plates using a Packard Universal Harvester. After drying the plates for 45 minutes, 50 μl of Microscint 0 was added to each well and binding measured on a Topcount NXT (Perkin Elmer). Data was analysed using Graphpad Prism 4 and expressed as percentage stimulation above basal. […]", "data": [{"smiles": "CC(C)Oc1ccc(-c2nc(-c3ccc4c(cnn4CCC(=O)O)c3)no2)cc1Cl", "note": "[Example 1, 3-[5-(5-{3-Chloro-4-[(1-methylethyl)oxy]phenyl}-1,2,4-oxadiazol-3-yl)-1H-indazol-1-yl]propanoic acid]", "values": [{"measurement": "EC50", "result": "< 1000", "unit": "nM"}]}]}
